Assay results published in patent US20250387388A1, “COMPOUND AS TRK INHIBITOR AND/OR RET INHIBITOR AND USE THEREOF” (Medinno Pharmaceutical Technology (Zhuhai) Co., Ltd., priority 2022, published 2025).

Legend:
[1] = system: external hemorrhoids in rats; assay: External hemorrhoid model in rats (acetic acid); type: in vivo, SD rats
Excerpt: • (1) Blank control group (7 rats) • (2) Hemorrhoid model group (10 rats) • (3) Hemorrhoid model group+positive control drug (Mayinglong Hemorrhoid Ointment) group (8 rats) • (4) Hemorrhoid model group+vehicle treatment (Gel excipient) (8 rats) • (5) Hemorrhoids model group+0.1% MDI-1228 gel preparation group (8 rats) • (6) Hemorrhoids model group+0.3% MDI-1228 gel preparation group (8 rats) • (7) Hemorrhoids model group+1% MDI-1228 gel preparation group (8 rats) • (8) Hemorrhoids model group+3% MDI-1228 gel preparation group (8 rats) • Experimental environment: Temperature 20° C.-26° C., humidity 40%-70%
Apart from the normal control group, all groups were treated by first disinfecting the perianal skin. A 75% acetic acid solution was prepared and injected subcutaneously in a scattered pattern around the anus of each rat at a dose of 0.05 ml.
The recipe and preparation method for 1% MDI-1228 gel were as follows:
The control group and model group received no treatment (no therapy). Administration begined 24 hours after the model induction was successful. Group 3) was administrated with Mayinglong Hemorrhoid Ointment (7.5 g/Kg), three times, 10 min each time; Group 4) was administrated with a blank gel forming agent (1 g/Kg) around the anus; Groups 5)-8) were administrated with different concentrations of MDI-1228 compound gel preparation (1 g/Kg) around the anus, twice daily, 10 min each time, followed by covering with plastic wrap and fixing with tape to prevent the drug from falling off and affecting efficacy. After 6 hours, the dressing was removed, and the application site was cleaned with normal saline. The administration was continued for 11 days.
Observe the healing of the ulcer site on days 3, 5, 7, 9, and 11 of administration, and assess the ulcer score (scoring criteria: ulcer exudate present=1 point; minimal ulcer exudate=2 points; scab present, nearly healed=3 points; completely healed=4 points).
On an 11-day administration, animals were euthanized by inhalation of excess carbon dioxide, and perianal rectal tissue was taken for HE staining, and serum was taken for ELISA detection.
Tissue samples from animal Rectal were excised, fixed in 10% neutral formalin buffer solution, dehydrated, embedded in paraffin, and sectioned and HE stained for observation of rectal histopathological morphology changes. The reagents and instruments required for HE staining included: Hematoxylin staining solution (AR11800-1, BOSTER); Eosin staining solution (AR11800-2, BOSTER); Ultra-clean advanced mounting medium (YZB, BASO); Scott's blueing solution (G1865, Solarbio), etc. Medication refrigerator (BYC-310, Shandong Bokai Biotech); Microscope (CX41 OLYMPUS); Microtome (BQ-318D, Berne); Electric heating blast drying oven (DHG-9070A, Hengke Scientific Instrument Co., Ltd.). The taken tissue was rinsed with running water for several hours, dehydrated through a series of ethanol solutions (70%, 80%, 90%), and then treated with a mixture of pure alcohol and xylene at a ratio of 1:1 for 15 minutes, followed by xylene I for 15 minutes and xylene II for 15 minutes (until transparent). The tissue was then placed in a mixture of xylene and paraffin at a ratio of 1:1 for 15 minutes, followed by immersion with paraffin I and paraffin 11 each for 50-60 minutes. The tissue was embedded in paraffin and sectioned, and the sections were dried, dewaxed and hydrated in distilled water. […]

[2] = system: atopic dermatitis/eczema in mice; assay: Atopic dermatitis/eczema model in mice (dust mite extract + SEB); type: in vivo

Structure (SMILES): CCc1cc(O)c(F)cc1-c1ccc2c(-c3nc4c([nH]3)CN(C(=O)N3CC[C@H](O)C3)C4)n[nH]c2c1 [MDI-1228, (S)-(2-(6-(2-ethyl-5-fluoro-4-hydroxyphenyl)-1H-indazol-3-yl)-4,6-dihydropyrrolo[3,4-d]imidazol-5-(1H)-yl)(3-hydroxylpyrrolidin-1-yl)ketone]
- TNF-α expression in blood (ELISA) ([1]; 0.1%, 0.3%, 1%, 3% MDI-1228 gel, positive control drug, vs. model group): could all downregulate the expression of TNF-α
- Perianal ulcer healing score ([1]; 1% MDI-1228 gel 1 g/Kg twice daily, vs. model group): significant therapeutic effect after a 7-days administration
- Perianal rectal tissue HE staining pathological score ([1]; 3% MDI-1228 gel): the best effect
- Perianal rectal tissue HE staining pathological score ([1]; MDI-1228 gel at concentrations of 0.3% or more): more significant
- Alleviation and treatment of external hemorrhoids ([1]; MDI-1228 gel preparations at different concentrations): can effectively alleviate and treat external hemorrhoids in rats
- Skin HE staining and toluidine blue staining ([2]; 0.5% MDI-1228 gel): a decrease in mast cells and inflammatory cells compared to the model group
- Skin HE staining and toluidine blue staining ([2]; 1% and 3% MDI-1228 gel): relatively significant therapeutic effects
- Reduction in area under the curve (AUC) of the dermatitis scores vs. model group ([2]; 3% MDI-1228 gel): 23.75%
- Number of Scratch Incidents (±SE) ([2]; Day 1, 0.5% MDI-1228 gel): 24.0 ± 3.60
- Scratch Duration (±SE) ([2]; Day 1, 0.5% MDI-1228 gel): 241.00 ± 48.16
- Skin Erythema, Hemorrhage, Eruption, and Desquamation (Lesion Scoring) (Mean ± SE) ([2]; Day 1, 0.5% MDI-1228 gel 0.7 g gel/kg twice a day): 4.13 ± 0.55
- Number of Scratch Incidents (±SE) ([2]; Day 1, 1% MDI-1228 gel): 20.38 ± 2.08
- Scratch Duration (±SE) ([2]; Day 1, 1% MDI-1228 gel): 211.50 ± 22.88
- Skin Erythema, Hemorrhage, Eruption, and Desquamation (Lesion Scoring) (Mean ± SE) ([2]; Day 1, 1% MDI-1228 gel 1 g gel/kg twice a day): 4.75 ± 0.75
- Number of Scratch Incidents (±SE) ([2]; Day 1, 3% MDI-1228 gel): 23.00 ± 2.46
- Scratch Duration (±SE) ([2]; Day 1, 3% MDI-1228 gel): 288.00 ± 19.68
- Skin Erythema, Hemorrhage, Eruption, and Desquamation (Lesion Scoring) (Mean ± SE) ([2]; Day 1, 3% MDI-1228 gel 1 g gel/kg twice a day): 3.38 ± 0.42
- Skin Erythema, Hemorrhage, Eruption, and Desquamation (Lesion Scoring) (Mean ± SE) ([2]; Day 4, 0.5% MDI-1228 gel 0.7 g gel/kg twice a day): 2.88 ± 0.64
- Skin Erythema, Hemorrhage, Eruption, and Desquamation (Lesion Scoring) (Mean ± SE) ([2]; Day 4, 1% MDI-1228 gel 1 g gel/kg twice a day): 3.25 ± 0.49
- Skin Erythema, Hemorrhage, Eruption, and Desquamation (Lesion Scoring) (Mean ± SE) ([2]; Day 4, 3% MDI-1228 gel 1 g gel/kg twice a day): 2.63 ± 0.46
- Skin Erythema, Hemorrhage, Eruption, and Desquamation (Lesion Scoring) (Mean ± SE) ([2]; Day 7, 0.5% MDI-1228 gel 0.7 g gel/kg twice a day): 2.13 ± 0.58
- Skin Erythema, Hemorrhage, Eruption, and Desquamation (Lesion Scoring) (Mean ± SE) ([2]; Day 7, 1% MDI-1228 gel 1 g gel/kg twice a day): 2.13 ± 0.30
- Skin Erythema, Hemorrhage, Eruption, and Desquamation (Lesion Scoring) (Mean ± SE) ([2]; Day 7, 3% MDI-1228 gel 1 g gel/kg twice a day): 1.75 ± 0.31
- Number of Scratch Incidents (±SE) ([2]; Day 14, 0.5% MDI-1228 gel): 30.38 ± 3.79
- Scratch Duration (±SE) ([2]; Day 14, 0.5% MDI-1228 gel): 165.63 ± 27.56
- Skin Erythema, Hemorrhage, Eruption, and Desquamation (Lesion Scoring) (Mean ± SE) ([2]; Day 14, 0.5% MDI-1228 gel 0.7 g gel/kg twice a day): 1.25 ± 0.36
- Number of Scratch Incidents (±SE) ([2]; Day 14, 1% MDI-1228 gel): 28.13 ± 2.05
- Scratch Duration (±SE) ([2]; Day 14, 1% MDI-1228 gel): 182.0 ± 25.39
- Skin Erythema, Hemorrhage, Eruption, and Desquamation (Lesion Scoring) (Mean ± SE) ([2]; Day 14, 1% MDI-1228 gel 1 g gel/kg twice a day): 1.38 ± 0.18
- Number of Scratch Incidents (±SE) ([2]; Day 14, 3% MDI-1228 gel): 23.75 ± 2.62
- Scratch Duration (±SE) ([2]; Day 14, 3% MDI-1228 gel): 173.13 ± 19.26
- Skin Erythema, Hemorrhage, Eruption, and Desquamation (Lesion Scoring) (Mean ± SE) ([2]; Day 14, 3% MDI-1228 gel 1 g gel/kg twice a day): 1.63 ± 0.26
- Effect on inflammation in atopic dermatitis/eczema (conclusion) ([2]; MDI-1228 gel preparation): significant inhibitory effects on inflammation
- IFN-γ level in serum ([2]; MDI-1228 gel, vs. model group): significantly increased
- IL-4 level in serum ([2]; MDI-1228 gel, vs. model group): significantly reduced
- IL-13 level in serum ([2]; MDI-1228 gel, vs. model group): significantly reduced
- Behavioral analysis (scratch incidents and scratch duration) ([2]; MDI-1228 high-dose (3% gel), tofacitinib 10 mg/kg): certain therapeutic effect in the behavioral analysis
- Clinical lesion scoring, therapeutic effect ([2]; gels with 0.5%, 1%, 3% MDI-1228, positive control Tofacitinib 10 mg/kg, 14 days): therapeutic effects similar to the positive control drug
- TNF-α level in serum ([2]; high, medium, and low dose MDI-1228 gel, vs. model group): a reduction in TNF-α levels
